One assay has as its system Bcl-2 protein. The conditions noted are these: melanoma; cited from earlier work.
Another assay has as its system human melanoma tumors. In words: histopathology analysis of human melanoma (Skmel-28) tumors induced in nude athymic mice. The format is in vivo. The conditions noted are these: topical application for 30 days, H & E or S-100 stain. The method, then:
Skmel-28 cells were grown in 5% serum supplemented DMEM/F12 medium to 80% confluency. The cells were trypsinized and pelleted using a centrifuge. The pellets were then resuspended in cold PBS. The subjects for this study were nude athymia mice. Each subject received two injections of the cell suspension on the dorsal region of the mouse. After a visual assessment of the establishment of a tumor, treatment with a topical application would commence. After 30 days of treatment, the tumors were excised from the mice and placed in formalin. Each tumor sample was embedded in paraffin and sliced using a microtome. The slides underwent an H & E or S-100 stain. These samples were than analyzed by a pathologist to assess the vascular integrity of the tumor.

Take `COC1=C(OC)C(=O)C(C/C=C(\C)CC/C=C(\C)CC/C=C(\C)CC/C=C(\C)CC/C=C(\C)CC/C=C(\C)CC/C=C(\C)CC/C=C(\C)CC/C=C(\C)CCC=C(C)C)=C(C)C1=O` [CoQ10, 2,3-dimethoxy-5-methyl-6-decaprenyl-1,4-benzoquinone]: in the assay on Bcl-2 protein, the Bcl-2 protein level entry is listed as “downregulation of the Bcl-2 protein”. Further, the “tumor pathology / vascular integrity of the tumor” value in the assay with human melanoma tumors was “disruption in tumor vasculature”.

The record behind these values is patent publication US10668028B2, “Methods and use of inducing apoptosis in cancer cells” (Berg LLC, priority 2008, dated 2020).
